Consider 8 compounds from patent US6087379A, “Cyclic amine derivatives” (Sankyo Company, Limited, priority 1996, dated 2000).

Counter-ions that a name gives are not always drawn.

One experiment relates to male ICR mice. Briefly: Test 1: Prolongation of Bleeding Time in Mice. The experiment is classed as in vivo, mouse (ICR). The settings on record: oral, 3 days (48, 24 and 4 hours before), ratio test compound-treated to control, cut-off 300 seconds. As for the experimental part: Prolongation of Bleeding Time in Mice Groups of 10 male ICR mice (Charles River Japan Inc.) were used in the experiment. Test compound suspended in 5% gum arabic solution was orally administered for 3 days (48, 24 and 4 hours before the experiment). Each mouse was placed in a retainer, and the tail was transected at 5 mm from the tip, and then the tail (2 cm) was immersed in saline solution warmed at 37° C. Bleeding time was defined as the interval between the time of transection until bleeding stopped over a 15 seconds period. Bleeding times beyond 5 minutes were recorded as 5 minutes (300 seconds). Results were expressed as ratios of bleeding times of test compound-treated to non-treated (control) groups in which mice received 5% gum arabic solution.

The test system of a further experiment is platelet aggregation. Briefly: Test 2: Antiaggregatory Action in Rats (ex vivo platelet aggregation in citrated blood, ADP or collagen). The settings on record: Rattus norvegicus, oral, 4 hours before, female SD rats, induced by ADP or collagen (which one not given). The procedure:
Antiaggregatory Action in Rats
Groups of 4 female SD rats (Charles River Japan Inc.) were used in the experiment Test compound suspended in 5% gum arabic solution was orally administered to rats 4 hours before the experiment. Control rats received 5% gum farabic solution. Platelet aggregation was measured according to the method of P. Lumley and P. P. A. Humphrey (J. Pharmacol. Methods, 6, 153-166 (1981)) with a slight modification. Blood (5.4 ml) was collected from the abdominal aorta of anesthetized rats using 3.8% (w/v) sodium citrate solution (0.6 ml) as an anticoagulant. An aliquot of citrated blood (1.2 ml) added to the cuvette was stirred (1000 rpm) at 37° C. Two minutes later, blood (0.3 ml) was taken from the cuvette, and the number of platelets was measured by an automatic hematology analyzer (E-4000, Toa Iyo Denshi), which was designated as the pre-aggregation number of platelets. To the remaining blood (0.9 ml) in the cuvette were added 0.1 ml of 0.05 mM adenosine-5'-diphosphate (ADP) or 0.06 mg/ml collagen to induce platelet aggregation. Two minutes after the addition of ADP or 4 minutes after the addition of collagen, blood (0.3 ml) was taken from the cuvette, and the number of platelets was measured, which was designated as the post-aggregation number of platelets. Platelet aggregation (%) was determined by the following equation:
100×(pre-aggregation number of platelets-post-aggregation number of
platelets)/pre-aggregation number of platelets
Antiaggregatory action of the test compound was determined comparing platelet aggregation of test compound-treated rats to that of control rats (without administration of test compound).

For the next experiment, the system named is Human Platelets. Briefly: Test 3: Antiaggregatory Action in Human Platelets (PRP, ADP-induced aggregation). The settings on record: Platelet, 37° C.; for inhibition at 10 µg/mL: 10 μg/ml; for inhibition at 30 µg/mL: 30 μg/ml. Type of experiment: cell-based. The procedure: Antiaggregatory Action in Human Platelets
Platelet aggregation was measured using an automatic platelet aggregometer (PAM-8C, Mebanix) by the method of G.V.R. Born (Nature, 194, 927-929 (1962)) with a slight modification. Blood was collected from the antecubital vein of healthy volunteers who had not taken any medications for 2 weeks using 3.8% sodium citrate as an anticoagulant (1/9 volume of blood). Platelet-rich plasma (PRP) was obtained by centrifugation (CR5DL, Hitachi) at 200×g for 15 minutes at room temperature. Platelet-poor plasma (PPP) was obtained by further centrifugation of the remained blood at 2000×g for 10 minutes at room temperature. The number of platelets in PRP was measured by an automatic hematology analyzer (K-1000, Toa Iyo Denshi), and adjusted to 3×10^8 /ml using PPP. PRP prepared as described above was used for the platelet aggregation experiment. PRP (0.24 ml) was added to the cuvette and set in the platelet aggregometer. After pre-incubation for 1.5 minutes at 37° C., 0.01 ml of 0.25 mM ADP were added to the cuvette to initiate platelet aggregation. Platelet aggregation was monitored for 10 minutes.
Antiaggregatory action of test compound was expressed as inhibition (%) of aggregation comparing platelet aggregation of test compound to that of control (without addition of test compound).

By inhibition is commonly meant the drop in the measured response relative to a control, in per cent. A higher inhibition goes with strong suppression. On to `CC(=O)SC1CCN(C(C(=O)C2CC2)c2ccccc2F)CC1` (stereo not drawn) [Example 1(a), 4-Acetylthio-1-(α-cyclopropylcarbonyl-2-fluorobenzyl)piperidine], for which, in the experiment with male ICR mice (10 mg/kg), the “bleeding time extending ratio” value turned out to be 1.06. Besides, in the experiment on male ICR mice (30 mg/kg), the “bleeding time extending ratio” value is 2.06. For the same compound, in the experiment with platelet aggregation, testing at 10 mg/kg gave an inhibition of 5.7% and testing at 30 mg/kg gave an inhibition of 23.3%.
Regarding `Cl.O=C(C1CC1)C(c1ccccc1F)N1CCC(S)CC1` (stereo not drawn) [Example 1(b), 1-(α-Cyclopropylcarbonyl-2-fluorobenzyl)-4-mercaptopiperidine hydrochloride], the “bleeding time extending ratio” value in the experiment with male ICR mice (30 mg/kg) stood at 1.46. In addition, in the experiment with Human Platelets, the inhibition at 10 µg/mL came out at 48.6% and the inhibition at 30 µg/mL was found to be 70.6%.
For the compound `CCOC(=O)/C=C1\CN(C(C(=O)C2CC2)c2ccccc2F)CCC1SC(C)=O` (stereo not drawn) [Example 10(a), (E)-4-Acetylthio-1-(α-cyclopropylcarbonyl-2-fluorobenzyl)-3-ethoxycarbonylmethylidenepiperidine], the “bleeding time extending ratio” value in the experiment with male ICR mice (10 mg/kg) is listed as above 2.75. The “bleeding time extending ratio” value in the experiment with male ICR mice (30 mg/kg) was above 2.75. In the experiment with platelet aggregation, this compound yielded an inhibition at 10 mg/kg of 88.6% and an inhibition at 30 mg/kg of 97.2%.
On to `O=C(O)/C=C1/CN(C(C(=O)C2CC2)c2ccccc2F)CCC1S` (stereo not drawn) [Example 12, (Z)-1-(α-Cyclopropylcarbonyl-2-fluorobenzyl)-3-carboxymethylidene-4-mercaptopiperidine trifluoroacetate], for which, in the experiment with Human Platelets, the inhibition at 10 µg/mL amounted to 41.2% and the inhibition at 30 µg/mL was determined as 68.9%.
Turning to `CCOC(=O)/C=C1\CN(C(C(=O)OC)c2ccccc2Cl)CCC1SC(C)=O` (stereo not drawn) [Example 13, (E)-4-Acetylthio-1-(2-chloro-α-methoxycarbonylbenzyl)-3-ethoxycarbonylmethylidenepiperidine], the “bleeding time extending ratio” value in the experiment on male ICR mice (10 mg/kg) and in the experiment with male ICR mice (30 mg/kg) was above 2.75 in each case.
For `CC(=O)SC1CCN(C(C(=O)C2CC2)c2ccccc2F)C/C1=C\C(=O)N(C)C` (stereo not drawn) [Example 15(a), (E)-4-Acetylthio-1-(α-cyclopropylcarbonyl-2-fluorobenzyl)-3-(N,N-dimethylcarbamoyl)methylidenepiperidine], the “bleeding time extending ratio” value in the experiment with male ICR mice (10 mg/kg) was determined as 2.53. The “bleeding time extending ratio” value in the experiment on male ICR mice (30 mg/kg) is listed as above 2.75. Moreover, in the experiment with platelet aggregation, at 10 mg/kg the inhibition was 18.6% and the inhibition at 30 mg/kg is 95.9%.
As for `CCCC(=O)SC1CCN(C(C(=O)C2CC2)c2ccccc2F)CC1` (stereo not drawn) [Example 18, 4-Butyrylthio-1-(α-cyclopropylcarbonyl-2-fluorobenzyl)piperidine], the “bleeding time extending ratio” value with male ICR mice (10 mg/kg) was 1.45; with male ICR mice (30 mg/kg) it was 2.57. In the experiment with platelet aggregation, the inhibition at 30 mg/kg was 18.3%.
For `COC(=O)C(c1ccccc1F)N1CCC(SC(=O)c2ccccc2)CC1` (stereo not drawn) [Example 28, 4-Benzoylthio-1-(2-fluoro-α-methoxycarbonylbenzyl)piperidine], in that order: 1.24, 2.16 and 39.6%.
